Article PMC5790609 (Journal of neuroimmune pharmacology : the official journal …, 2017)

Legend:
[1] = target: TSPO (C/C rs6971 genotype) (Homo sapiens, UniProt P30536); test: [3H]-DPA-713 dissociation kinetics, platelet lysates, C/C genotype; type: binding; conditions: PK11195 5 μM, cholesterol 1.2 μM
[2] = system: TSPO (C/T rs6971 genotype); test: [3H]-DPA-713 dissociation kinetics, platelet lysates, C/T genotype; type: binding, human; conditions: for effect on rate of dissociation of [3H]-DPA-713 vs. excess DPA-713: PK11195 5 μM, cholesterol 1.2 μM
[3] = target: TSPO (T/T rs6971 genotype) (Homo sapiens, UniProt P30536); test: [3H]-DPA-713 dissociation kinetics, platelet lysates, T/T genotype; type: binding; conditions: PK11195 5 μM, cholesterol 1.2 μM
[4] = ref Vivash and O'Brien 2016; cited from earlier work

Chain of TSPO (C/C rs6971 genotype) (P30536 whole entry): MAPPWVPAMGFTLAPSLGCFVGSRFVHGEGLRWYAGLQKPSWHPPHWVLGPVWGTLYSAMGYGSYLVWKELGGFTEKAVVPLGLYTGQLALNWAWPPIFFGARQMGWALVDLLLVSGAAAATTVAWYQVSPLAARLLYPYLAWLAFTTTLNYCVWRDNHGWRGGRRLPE
Chain of TSPO (T/T rs6971 genotype) (P30536 2-169): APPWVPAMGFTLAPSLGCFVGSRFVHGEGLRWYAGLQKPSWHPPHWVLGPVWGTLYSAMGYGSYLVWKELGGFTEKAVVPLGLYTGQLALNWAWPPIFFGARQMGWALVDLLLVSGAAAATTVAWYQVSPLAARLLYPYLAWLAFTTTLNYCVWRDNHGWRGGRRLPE

SMILES | effect on rate of dissociation of [3H]-DPA-713 vs. excess DPA-713 [1] | effect on rate of dissociation of [3H]-DPA-713 vs. excess DPA-713 [2] | effect on rate of dissociation of [3H]-DPA-713 vs. excess DPA-713 [3] | dissociation rates of [3H]-DPA-713 with 2 vs. 12 μM DPA-713 [2] | non-specific plasma protein binding [4]
CC(C)CCC[C@@H](C)[C@H]1CC[C@H]2[C@@H]3CC=C4C[C@@H](O)CC[C@]4(C)[C@H]3CC[C@]12C [cholesterol] | the same | the same | accelerated |  | 
CCN(CC)C(=O)Cc1c(-c2ccc(OC)cc2)nn2c(C)cc(C)nc12 [DPA-713] |  |  |  | the same | 
CCC(C)N(C)C(=O)c1cc2ccccc2c(-c2ccccc2Cl)n1 (centres unmarked) [PK11195] | the same | the same | accelerated |  | high
